Measured values as given in ChEMBL document CHEMBL4673187, “Recent developments of small molecule gamma-secretase modulators for Alzheimer''s disease” (RSC Med Chem, 2020).
One block for each compound: values may come before it.

Experiments:
[1] = Modulation of gamma secretase in Wistar rat fetal brain-derived neuronal cell incubated for 3 days by ELISA; conditions: 72 h
[2] = Modulation of gamma-secretase in CHO cells expressing APP V717F assessed as increase in amyloid beta38 level; format: cell-based; conditions: Cricetulus griseus
[3] = Modulation of gamma-secretase in CHO cells expressing APP V717F assessed as reduction in amyloid beta42 level; format: cell-based; conditions: Cricetulus griseus
[4] = In vivo modulation of gamma secretase in transgenic Tg2576 mouse assessed as reduction in insoluble amyloid beta42 level at 60 mg/kg, po administered once daily for 65 days by ELISA relative to control; format: functional; set-up: scale not given: the % may be the effect or the level left; conditions: time 65 day
[5] = In vivo modulation of gamma secretase in transgenic Tg2576 mouse assessed as reduction in soluble amyloid beta42 level at 60 mg/kg, po administered once daily for 65 days by ELISA relative to control; format: functional; set-up: scale not given: the % may be the effect or the level left; conditions: time 65 day
[6] = Maximum concentration of drug in po dosed CF1 mouse brain and measured at 4 hrs by liquid chromatography and tandem mass spectrometry; format: ADME, organism-based; set-up: route oral, time 4 hrs
[7] = In vivo modulation of gamma secretase in CF1 mouse assessed as reduction in amyloid beta42 level at 10 mg/kg, po administered as single dose measured after 4 hrs by ELISA relative to control; format: functional; set-up: scale not given: the % may be the effect or the level left
[8] = Ratio of drug level in CF1 mouse brain to plasma at 3 to 100 mg/kg, po measured after 4 hrs by liquid chromatography and tandem mass spectrometry; format: ADME, organism-based; conditions: dose 3-100 mg/kg, read-out: BPR
[9] = In vivo modulation of gamma secretase in CF1 mouse assessed as reduction in plasma amyloid beta40 level at 100 mg/kg, po measured after 4 hrs by ELISA relative to control; format: functional; set-up: scale not given: the % may be the effect or the level left
[10] = In vivo modulation of gamma secretase in CF1 mouse assessed as reduction in brain amyloid beta40 level at 100 mg/kg, po measured after 4 hrs by ELISA relative to control; format: functional; set-up: scale not given: the % may be the effect or the level left
[11] = In vivo modulation of gamma secretase in CF1 mouse assessed as increase in plasma amyloid beta38 level at 100 mg/kg, po measured after 4 hrs by ELISA relative to control; format: functional
[12] = In vivo modulation of gamma secretase in CF1 mouse assessed as increase in brain amyloid beta38 level at 100 mg/kg, po measured after 4 hrs by ELISA relative to control; format: functional
[13] = In vivo modulation of gamma secretase in CF1 mouse assessed as reduction in plasma amyloid beta42 level at 100 mg/kg, po measured after 4 hrs by ELISA relative to control; format: functional; set-up: scale not given: the % may be the effect or the level left
[14] = In vivo modulation of gamma secretase in CF1 mouse assessed as reduction in brain amyloid beta42 level at 100 mg/kg, po measured after 4 hrs by ELISA relative to control; format: functional; set-up: scale not given: the % may be the effect or the level left
Gamma-secretase [15] = test: Modulation of gamma-secretase in human H4 cells expressing human wild type APP751 assessed as increase in amyloid beta38 level incubated for 17 hrs by ELISA; format: cell-based
Gamma-secretase [16] = test: Modulation of gamma-secretase in human H4 cells expressing human wild type APP751 assessed as reduction in amyloid beta42 level incubated for 17 hrs by ELISA; format: cell-based
[17] = In vivo modulation of gamma secretase in CF1 mouse assessed as increase in amyloid beta38 level at 10 mg/kg, po administered as single dose measured after 16 hrs by ELISA relative to control; format: functional
[18] = In vivo modulation of gamma secretase in transgenic Tg2576 C57BL/6 mouse assessed as reduction in amyloid beta42 level at 10 mg/kg, po administered as single dose measured after 4 hrs by ELISA relative to control; format: functional; set-up: scale not given: the % may be the effect or the level left
[19] = In vivo modulation of gamma secretase in transgenic Tg2576 C57BL/6 mouse assessed as reduction in amyloid beta42 level at 30 mg/kg, po administered as single dose measured after 4 hrs by ELISA relative to control; format: functional; set-up: scale not given: the % may be the effect or the level left
[20] = Lipophilicity, logD of the compound; format: physicochemical; conditions: octanol/water
[21] = Inhibition of notch signalling (unknown origin); set-up: species or system Homo sapiens
[22] = In vivo modulation of gamma secretase in C57BL/6 mouse assessed as reduction in amyloid beta42 level at 10 mg/kg, po measured at 3 hrs relative to control; format: functional; set-up: scale not given: the % may be the effect or the level left
[23] = In vivo modulation of gamma secretase in C57BL/6 mouse assessed as reduction in amyloid beta42 level at 30 mg/kg, po measured at 3 hrs relative to control; format: functional; set-up: scale not given: the % may be the effect or the level left
Gamma-secretase [24] = test: Modulation of gamma-secretase in human H4 cells expressing human APP assessed as reduction in amyloid beta42 level incubated for 22 hrs; format: cell-based

Compound: COc1cc(/C=C2\CCCN([C@@H](C)c3ccc(F)cc3)C2=O)ccc1-n1cnc(C)c1
IC50 [1]: 93 nM

Compound: CC1CCN([C@H](c2ccc(F)cc2)c2ccc([C@@H](C)C(=O)O)cc2-c2ccc(C(F)(F)F)cc2)CC1
EC50 [2]: 150 nM
IC50 [3]: 170 nM
Activity [4]: 80%
Activity [5]: 50%
Cmax [6]: 7.5 µM
Activity [7]: 40%
Kp at 4 h [8]: 0.8
Activity [9]: 25%
Activity [10]: 16%
Activity [11]: 82%
Activity [12]: 98%
Activity [13]: 45%
Activity [14]: 60%
EC50 (Gamma-secretase [15]): 146 nM
IC50 (Gamma-secretase [16]): 64 nM
Activity [17]: 50%

Compound: O=C(O)[C@H](CC1CCC1)c1cc(Cl)c(OCC(F)(F)F)c(-c2ccc(C(F)(F)F)cc2)c1
Activity [18]: 22%
Activity [19]: 38%

Compound: COc1cc(-c2nnc3n2CCCC3c2ccc(Cl)c(Cl)c2)ccc1-c1cnc(C)o1 (stereo not given)
logD [20]: 3.2

Compound: Cc1nsc(N2CCC(Nc3nc4c(-c5ccc(F)c(F)c5F)cccn4n3)C(F)(F)C2)n1 (stereo not given)
IC50 (Gamma-secretase [24]): 143 nM

The next lines start with results.

logD [20]: 2.9
Compound: COc1cc(-c2nnc3n2CCCC32OCc3c(cccc3C(F)(F)F)N(CC(F)(F)F)C2=O)ccc1-c1cnc(C)o1 (stereo not given)

logD [20]: 2.8
Compound: COc1cc(-c2nnc3n2CCCC32OCc3c(Cl)cccc3N(CC(F)(F)F)C2=O)ccc1-c1cnc(C)o1 (stereo not given)

logD [20]: 3.2
Compound: COc1cc(-c2nnc3n2CCCC3(Oc2ccc(F)c(Cl)c2)C(C)(C)O)ccc1-c1cnc(C)o1 (stereo not given)

logD [20]: 3.2
IC50 [21]: ≥ 10000 nM
Compound: COc1cc(-c2nnc3n2CCC[C@]3(Oc2cc(F)c(F)c(F)c2)C(C)(C)O)ccc1-c1cnc(C)o1
Activity [22]: 44%

logD [20]: 3.2
Compound: COc1cc(-c2nnc3n2CCC[C@@]3(Oc2cc(F)c(F)c(F)c2)C(C)(C)O)ccc1-c1cnc(C)o1

logD [20]: 3
Compound: COc1cc(-c2nnc3n2CCCC3(Cc2ccc(F)c(F)c2)C(=O)NCC(F)(F)F)ccc1-c1cnc(C)o1 (stereo not given)
Activity [23]: 4%
